Molecular target: T1, AlaRS G102R binding to Nrp1 (Homo sapiens, UniProt P49588, G102R)
T1 construct: expressed in transfected cells
T1 sequence (P49588 1-968 G102R): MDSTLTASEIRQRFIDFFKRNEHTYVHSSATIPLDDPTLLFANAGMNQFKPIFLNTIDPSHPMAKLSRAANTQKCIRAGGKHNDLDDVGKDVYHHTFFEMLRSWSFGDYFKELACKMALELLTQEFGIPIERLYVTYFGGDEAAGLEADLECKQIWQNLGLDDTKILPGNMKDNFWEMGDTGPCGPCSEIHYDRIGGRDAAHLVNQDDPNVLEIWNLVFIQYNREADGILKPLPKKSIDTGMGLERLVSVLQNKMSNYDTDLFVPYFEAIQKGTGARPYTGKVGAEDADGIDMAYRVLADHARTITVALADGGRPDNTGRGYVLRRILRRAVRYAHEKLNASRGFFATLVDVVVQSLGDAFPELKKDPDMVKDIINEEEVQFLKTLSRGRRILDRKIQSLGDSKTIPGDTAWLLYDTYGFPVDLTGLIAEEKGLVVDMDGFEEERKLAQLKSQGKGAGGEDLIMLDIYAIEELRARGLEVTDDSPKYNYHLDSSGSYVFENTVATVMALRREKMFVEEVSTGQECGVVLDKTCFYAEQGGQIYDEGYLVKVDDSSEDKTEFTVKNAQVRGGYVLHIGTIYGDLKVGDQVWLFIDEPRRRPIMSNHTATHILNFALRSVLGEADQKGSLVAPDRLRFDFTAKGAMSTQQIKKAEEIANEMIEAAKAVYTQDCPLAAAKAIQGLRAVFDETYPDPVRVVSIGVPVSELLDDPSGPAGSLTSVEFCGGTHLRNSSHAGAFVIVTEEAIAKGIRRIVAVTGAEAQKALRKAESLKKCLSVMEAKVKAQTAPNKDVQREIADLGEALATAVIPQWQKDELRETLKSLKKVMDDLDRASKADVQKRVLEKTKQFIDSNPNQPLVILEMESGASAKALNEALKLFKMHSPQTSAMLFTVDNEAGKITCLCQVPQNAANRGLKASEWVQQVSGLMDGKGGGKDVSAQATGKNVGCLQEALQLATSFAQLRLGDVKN
Test: Co-IP of HA-AlaRS mutant with Nrp1 in transfected cells
Format: cell-based
Conditions: 20 µM Tanshinone I for 24 h, ImageJ, average of three repeats

Mean density band (G102R), relative quantification of AlaRS mutant immunoprecipitated: 0.53
SMILES: Cc1coc2c1C(=O)C(=O)c1c-2ccc2c(C)cccc12 [Tanshinone I]
